Values joined by “and” are separate entries in the source; they are usually repeats but may differ in a detail not shown here. Equal values may be shown once.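 Tested at 5 concentrations; 48 h exposure; 96-well plates; endpoints linearly interpolated, else capped at highest concentration. The concentration for 50% growth inhibition is given as GI50. TGI: concentration producing complete growth inhibition.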
System: T-47D breast
Assay: NCI-60 cell line screen, 48 h

SMILES	TGI	GI50
O=C1c2c(Br)sc(Br)c2C(NC(=O)C(F)(F)F)C1O (configuration not stated)	55.9 µM	–
CCN(CC)CCCC(C)Nc1c(C)cnc2cc(Cl)c(C)cc12 (configuration not stated)	> 61.7 µM	22.9 µM
CC(=O)OC1CC(O)C23COC(O)C1(C)C2CC(O)C1(C)C3C(=O)C(O)C2(C)C(c3ccoc3)CC3OC321 (configuration not stated)	> 100 µM	0.151 µM
COc1ccc(C(C)c2cc3c(cc2OC)OCO3)cc1 (configuration not stated)	> 100 µM	–
CCc1[nH]c(=O)nc(N)c1-c1ccc(N2CCCCC2)c([N+](=O)[O-])c1	> 100 µM	–
COC(=O)C(=O)C(C(=O)C(=O)Nc1ccccc1C(N)=O)c1nc2ccc(Cl)cc2[nH]c1=O (configuration not stated)	> 100 µM	–
CCC#CC[C@H]1C/C=C2/C(=O)C=C[C@@H]2C/C=C\CCCC(=O)O1	10.2 µM	1.35 µM
CCN(CC)CCN1CC(O)=C(c2nc(-c3ccc(Cl)cc3)cs2)C1=N	5.11 µM	2.19 µM
COc1cc(OC)c(/C=C/C(=O)c2c(OC)cccc2OC)c(OC)c1	> 100 µM	0.383 µM

System: UACC-257 melanoma
Assay: NCI-60 cell line screen, 48 h

SMILES	TGI	GI50
COc1ccc2c(c1)C=C([N+](=O)[O-])C(C1OC(C)(C)OC1C1COC(C)(C)O1)O2 (configuration not stated)	6.16 µM	–
CN(C)CCNC(=O)c1cccc(C(=O)Nc2ccccc2)c1[N+](=O)[O-]	> 100 µM	–
CC(=O)OC1Oc2ccccc2-c2oc(=O)c(-c3cc4ccc(N(C)C)cc4oc3=O)cc21 (configuration not stated)	43.3 µM	10.2 µM
CCC1(O)C(=O)OCc2c1cc1n(c2=O)Cc2cc3ccc(C=O)cc3nc2-1 (configuration not stated)	23.7 µM and 43.7 µM	7.73 µM
COc1ccc2c(c1)C(=O)c1c-2n(CCCn2ccnc2)c(=O)c2ccccc12	10.9 µM	1.14 µM
COc1cc2oc(-c3ccc(O)cc3)cc(=O)c2c(OC)c1OC	> 100 µM	–
Fc1cc(F)c(COc2cc(Cn3cnc4c(Cl)nc(Cl)nc43)ccc2C23CC4CC(CC(C4)C2)C3)cc1F	39.3 µM	21 µM
CC/C=C\C[C@@H]1C/C=C2/C(=O)C=C[C@H]2C/C=C\CCCC(=O)O1	3.39 µM	1.37 µM
NC(=S)N/N=C/c1ccc(OC(=O)COc2ccc(Cl)cc2)cn1	72.1 µM	17.9 µM
O=C(N/N=C/c1cccc(O)c1O)c1ccccc1	7.05 µM	0.895 µM
c1ccc(C2=NNC3c4ccccc4-c4ccccc4N3C2)cc1 (configuration not stated)	61.6 µM	–
CN/N=C(/CCN1CCCC1)CC(c1ccccc1)c1c(O)c2ccccc2oc1=O (configuration not stated)	> 100 µM	–
COc1ccc(OC)c(/C=C/C(=O)N/N=C/c2ccc(Cl)cc2)c1	> 100 µM	36.5 µM
O=C1c2ccccc2-c2c1c1ccccc1c(=O)n2Cc1ccccc1	> 100 µM	–
CCN(CC)c1sc(N(CC)CC)c2c1SSSSS2	4.08 µM	1.79 µM
O=C(c1cccc(O)c1O)c1cn(Cc2ccc(F)cc2)c2cccc(O)c12	14.3 µM	4.44 µM
Nc1ncc(-c2cnn(CCO)c2)c2scc(-c3ccc(NC(=O)Nc4cccc(F)c4)cc3)c12	1.89 µM	0.287 µM
COc1cc(C2=NN(C(C)=O)C(c3ccc(OC(C)=O)cc3OC(C)=O)O2)c(OC(C)=O)c2ccccc12 (configuration not stated)	6.86 µM	0.981 µM
COC(=O)Nc1nc2ccc(Oc3ccc(NC(=O)Nc4ccccc4)cc3)cc2[nH]1	> 14.8 µM	0.167 µM
O=C1c2c(Br)sc(Br)c2C(NC(=O)C(F)(F)F)C1O (configuration not stated)	36.4 µM	–
CCN(CC)CCCC(C)Nc1c(C)cnc2cc(Cl)c(C)cc12 (configuration not stated)	34.4 µM	18.2 µM
CC(=O)OC1CC(O)C23COC(O)C1(C)C2CC(O)C1(C)C3C(=O)C(O)C2(C)C(c3ccoc3)CC3OC321 (configuration not stated)	5.51 µM	0.16 µM
COc1ccc(C(C)c2cc3c(cc2OC)OCO3)cc1 (configuration not stated)	> 75.5 µM	–
CCc1[nH]c(=O)nc(N)c1-c1ccc(N2CCCCC2)c([N+](=O)[O-])c1	> 100 µM	–
COC(=O)C(=O)C(C(=O)C(=O)Nc1ccccc1C(N)=O)c1nc2ccc(Cl)cc2[nH]c1=O (configuration not stated)	> 100 µM	–
CCN(CC)CCN1CC(O)=C(c2nc(-c3ccc(Cl)cc3)cs2)C1=N	3.51 µM	1.82 µM
COc1cc(OC)c(/C=C/C(=O)c2c(OC)cccc2OC)c(OC)c1	> 100 µM	–

Reference: PubChem BioAssay (NCI)
